Data reported in patent publication US20150079105A1, “TREATMENT OF ACUTE INFLAMMATION IN THE RESPIRATORY TRACT” (UCL Business PLC, priority 2012, published 2015).
Entries after “also recorded” stand apart in the source; their conditions may differ.

What was measured:
[1] = system: LPS challenged mice; test: LPS-induced acute lung inflammation in mice: BAL fluid cell counts, MPO, serum albumin; assay type: in vivo
[2] = system: CCL7, Gr-1+ neutrophils; test: Immunohistochemical staining of CCL7 and Gr-1 in lung sections of LPS challenged mice; assay type: in vivo; details: 5 mg/kg 30 min after LPS; lungs fixed after 3 h
Protocol: FIG. 16. Mice were challenged with 125 μg/kg LPS (i.n.) and whole lungs inflated and fixed after 3 h. Immunohistochemical staining of CCL7 (a, b an c) or Gr-1 (d, e and f) was compared between saline treated controls and LPS challenged mice with or without treatment with the PAR1 antagonist RWJ-58259 (5 mg/kg) dosed therapeutically after 30 min. [AEW]. Endothelial-epithelial barrier disruption was measured by ELISA as the amount of serum albumin in BAL fluid from mice three hours after LPS (125 μg/kg i.n.) challenge (g) or S. pneumoniae challenge (h) with and without the PAR1 antagonist RWJ-58259 (5 mg/kg) dosed therapeutically i.p. after 30 min.
The observation that neutrophil migration downstream of PAR1 activation was mediated by the non-classical neutrophil chemokine, CCL7, was unexpected. In order to determine the cellular source of CCL7 the immunolocalization of CCL7 and Gr-1+ neutrophils in serial lung sections from saline treated and LPS-challenged mice was examined. In saline treated control lung, there was weak CCL7 staining which was mainly restricted to the bronchial epithelium (FIG. 16a). […] Only weak immunolocalization was detected in the alveolar epithelium. […] Gr-1 specific immunostaining was next performed in order to detect neutrophils in serial lung sections. No Gr-1 staining could be detected in saline treated controls (FIG. 16d). […]

[3] = 5 mg/kg i.p. 30 min after LPS 125 μg/kg i.n., 3 h after LPS, vs LPS alone
[4] = 5 mg/kg i.p. 30 min after LPS, 3 h

In the case of NCC[C@H](NC(=O)[C@H](Cc1ccc(F)c(F)c1)NC(=O)Nc1ccc2c(CN3CCCC3)nn(Cc3c(Cl)cccc3Cl)c2c1)C(=O)NCc1ccccc1 [RWJ-58259], the “neutrophil numbers in the airspaces (BAL fluid)” value [1, 3] is reported as “significantly decreased”, the “total cell numbers in the airspaces (BAL fluid)” value [1, 3] is reported as “significantly decreased” and the “Gr-1+(F4/80−) neutrophils recovered from BAL fluid and whole lung preparations, flow cytometry” value [1, 4] is reported as “a decrease”. The “LPS-induced neutrophil myeloperoxidase activity in lung homogenates” value [1, 4] was “reduced”, the “macrophage numbers in BAL fluid” value [1, 4] was “remained unchanged” and the “serum albumin levels in BAL fluid (alveolar-capillary barrier disruption)” value ([1]; 5 mg/kg i.p. 30 min after LPS, 3 h, vs LPS alone, listed as PAR1 antagonist) was “significantly decreased; also recorded: significantly reduced”. For the same compound, the neutrophil recruitment ([1]; 5 mg/kg i.p. 30 min after LPS, 6 h following LPS challenge) was “reduced”, the neutrophil recruitment ([1]; 5 mg/kg i.p. 30 min after LPS, 24 h following LPS challenge) was “reduced” and the “Gr-1 immunoreactivity in lung sections” value [2] was “decreased”. For the same compound, the “LPS-induced CCL7 immunoreactivity in lung sections” value [2] was “reduced”.
